Experimental data: patent US10314816B2, “Antimicrobial compounds, compositions and methods of use thereof” (Wisconsin Alumni Research Foundation, priority 2012, dated 2019)

Columns and labels:
[1] = test system: C. crescentus CB15N; assay: Minimum biofilm eradication concentration (MBEC); type: cell-based, Caulobacter crescentus
Method: Determination of the minimum biofilm inhibitory concentration of growth (bMIC) and biofilm eradication concentration (MBEC). Overnight cultures of C. crescentus and S. aureus were grown and diluted 100-fold into appropriate nutrient media. Aliquots of the diluted suspension were transferred into wells of 96-well plates (150 μL/well). 2-fold serial dilutions were performed for compound-containing wells. For every experiment, three replicates for each compound concentration tested were included. After transferring aliquots of the suspension, the plates were closed with specialized lids that have protruding pins (Nunc STP System), and the plates were sealed using Parafilm®. The plates were incubated in a static incubator at 30° C. (C. crescentus) or 37° C. (S. aureus) for 24 hours. After the cells had formed biofilms on the surface of the pins, the pins were rinsed by dipping them in M2 (C. crescentus) or PBS (S. aureus) solutions. To rinse the pins, clean, sterile 96-well plates were used (aliquots of 200 μL/well); each rinse lasted 10 sec. After washing away planktonic cells loosely bound to biofilms, the pins were inserted into a 96-well plate that was pre-aliquoted with nutrient media containing antibiotics (2-fold dilutions, a final volume of 150 μL/well). The plates were sealed with Parafilm®, and incubated for 17 hours, and the bMIC was measured at the end of the incubation by visual inspection. After the bMIC run, the rinse steps were repeated to remove planktonic cells, and the pins were inserted into a 96-well plate that was pre-aliquoted with drug-free nutrient media (aliquots of 150 μL/well). The plates were sealed with Parafilm®, incubated for 24 hours, and the MBEC was measured at the end of the incubation by visual inspection.
After performing bMIC experiments, biofilms growing on the pins of the lid were transferred to nutrient media devoid of antibiotics to measure the minimum concentration of antibiotic that prevented planktonic growth from biofilms in antibiotic-free nutrient media (MBEC). MBEC indicates whether the exposure to antimicrobial agent used during the bMIC experiment sterilized biofilm-associated cells. […] CCCP was the only effective antibiotic against S. aureus biofilms. Since CCCP was not as effective as DCAP at killing stationary cells, it was hypothesized that this variability in efficacy of membrane-active drugs is in part caused by changes in membrane composition (i.e., membrane proteins and lipid content) at different developmental stages of bacterial cells. […]

[2] = test system: Venus-FtsA; assay: Measurement of compound effects on FtsA localization; type: cell-based, Caulobacter crescentus; details: C. crescentus, 20 minutes
Method: Measurement of compound effects on FtsA: For experiments with C. crescentus expressing Venus-FtsA, a synchronized population of cells was used. First, an overnight culture was grown with kanamycin (5 μg/mL) and glucose (0.02% w/v). The presence of glucose suppressed the transcription of venus-ftsA from its xylose-inducible promoter. 2 mL of this culture was diluted into 25 mL of fresh PYE with the antibiotic and glucose, and incubated further to achieve an absorbance of ˜0.6 (λ=600 nm). Once the cells reached mid-exponential phase, the culture was centrifuged for 10 minutes at 6000 rpm and 4° C. The cell pellet was resuspended in ice-cold M2 (a final volume of approximately 1000 μL) and 750 μL of this suspension was added to an equal-volume of sterile Percol (Sigma Aldrich). After thoroughly mixing the solution, it was centrifuged for 20 minutes at 11,000 rpm and 4° C. Upon centrifugation, the bottom band (swarmer cells) was taken and the cells were washed in ice-chilled M2 solution (1 mL). The washed cell pellet was suspended in fresh PYE containing kanamycin (no glucose, 6 mL). The cell suspension was incubated for 20 minutes and then xylose (0.03% w/v) was added to induce the expression of venus-ftsA. Cells were grown for another 20 minutes and subsequently treated with compounds. The cells were incubated for 20 minutes again in the presence of the compounds prior to imaging. Thus, the total time of xylose induction was 40 minutes, and the total time of compound treatment was 20 minutes. At this time point (60 minutes post synchrony), the majority of the cells were at the beginning of cell division. Imaging conditions and data analysis were identical to the conditions described for MipZ-YFP, except for a set of criteria used for defining ‘wildtype’ protein localization. ‘Wildtype’ was defined as 1) Venus-FtsA is unipolar, meaning there was one peak, and the peak resided within a polar region; and 2) Venus-FtsA was at the mid-cell, meaning there was one peak and it was within the mid-cell region (40-60% of the normalized cell length). […]

[3] = test system: B. subtilis 168; assay: MIC of bacterial growth, macrodilution (Table 2); type: cell-based; details: Bacillus subtilis
Method: Bacterial strains and growth conditions. Luria-Bertani (LB) media (10 g/L tryptone, 10 g/L NaCl, 5 g/L yeast extract, pH 7.2) was used to grow B. subtilis 168, S. aureus FRI100, and P. aeruginosa K1115 strains. For P. aeruginosa PAO1 and K1119 strains and two E. coli BW25113 strains, M8 minimal media (241 mg/L MgSO4, 4 mg/L glucose, 5 mg/L casamino acids, 12.8 g/L Na2HPO4.7H2O, 3 g/L KH2PO4, and 0.5 g/L NaCl) was used. PYE media (2 g/L peptone, 1 g/L yeast extract, 0.8 mM MgSO4, and 0.5 mM CaCl2) was used for culturing C. crescentus cells at 30° C. All cultures were grown at 37° C., except for C. crescentus (30° C.). All cultures were grown while shaking at 200 rpm.
Determination of the minimum inhibitory concentration (MIC) of bacterial growth. The MIC of various organisms in liquid media was determined using the macrodilution method according to the NCCLS guidelines. For the starting inoculum, cultures were diluted to contain approximately 5×10^5 cells/mL in growth media. To create a two-fold dilution series for the macrodilution technique, each compound was added to the first culture tube (4 mL total volume) at the highest concentration. 2 mL of this culture was diluted into an equal volume of inoculated media (a two-fold dilution). The final volume for each culture was 2 mL.

| SMILES | MBEC [1] | Venus-FtsA localization ([2]; CCCP at its minimum inhibitory concentration (5 μM)) | Venus-FtsA localization ([2]; higher concentration of CCCP (25 μM)) | MIC [3] | Venus-FtsA localization ([2]; treated with DCAP) |
| --- | --- | --- | --- | --- | --- |
| N#CC(C#N)=NNc1cccc(Cl)c1 [CCCP, carbonyl cyanide m-chlorophenyl hydrazone] | 5 µM | did not alter the localization of FtsA | had a significant effect on the position of FtsA | 10 µM |  |
| OCC(CO)(CO)NCC(O)Cn1c2ccc(Cl)cc2c2cc(Cl)ccc21 (stereo not shown) [DCAP, 2-((3-(3,6-dichloro-9H-carbazol-9-yl)-2-hydroxypropyl)amino)-2-(hydroxymethyl)propane-1,3-diol] | 40 µM |  |  | 32 µM | exhibited multiple peaks of FtsA fluorescence (≥2) |
